Consider 13 compounds from patent US10857196B2, “Bicyclic peptide ligands and uses thereof” (BicycleTx Limited, priority 2017, dated 2020).

Numbered stars: 1 amine (or outer) side, 2 acyl side, 3 side chain; on linkers, the order of the positions; unused ones are H or OH. Bridge positions count the residues as written; N and C are the ends. Square brackets hold non-standard residues; d marks the D form. Ends that are not written are not given here. Peptide text beside a SMILES is read from it. X8 = O=C(C[*:1])NCCn1c(=O)n(CCNC(=O)C[*:2])c(=O)n(CCNC(=O)C[*:3])c1=O; X6 = O=S(=O)(CC[*:1])c1cc(S(=O)(=O)CC[*:2])cc(S(=O)(=O)CC[*:3])c1; X3 = O=C(C[*:1])N1CC23CN(C(=O)C[*:2])CC2(C1)CN(C(=O)C[*:3])C3; 1Nal = N[C@@H](Cc1cccc2ccccc12)C(=O)O; Tle = CC(C)(C)[C@H](N)C(=O)O; βAla = NCCC(=O)O; Sar = CNCC(=O)O

One assay concerns the target MT1-MMP (Homo sapiens, UniProt P50281).
Assay: not given
To be noted: bicyclic peptide formed with TBMB scaffold; MT1-MMP binder; cited from earlier work.
By Kd is commonly meant the concentration at which binding is half-saturated. In the case of “βAla-Sar10-A-C(D-Ala)NE(1Nal)(D-Ala)CEDFYD(tBuGLy)C ([βAla][Sar][Sar][Sar][Sar][Sar][Sar][Sar][Sar][Sar][Sar]AC[dA]NE[1Nal][dA]CEDFYD[Tle]C; cysteine pairing not given here) [17-69-07-N241]”, the Kd was 1.2 nM.

For the next assay, the target named is T1, CAIX (Homo sapiens, UniProt Q16790). Description: CAIX competition binding assay (competition fluorescence polarization). The settings on record: fluorescent ligand A-(CAECWIDGWVPC)-A-Sar6-K(Fl). As for the experimental part:
CAIX Competition Binding Assay Affinity of the peptides of the invention for human CAIX (Ki) was determined using a competition fluorescence polarization assay analogous to that described in Dubois et al. (2011) Radiotherapy and Oncology 99(3), 424-43 using A-(CAECWIDGWVPC)-A-Sar6-K(Fl) (SEQ ID NO: 5) as the fluorescent ligand.
A Ki value designated “A” denotes a Ki of ≤50 nM; a Ki value designated “B” denotes a K, of >50 nM and ≤100 nM; a Ki value designated “C” denotes a Ki of >100 nM and ≤1,000 nM; and a Ki value designated “D” denotes a Ki of >1,000 nM.
For orientation: Ki means a measure of affinity in units of concentration, obtained from inhibition or displacement. A low value points to higher affinity. Compound `CC(C)[C@@H]1NC(=O)[C@H](Cc2c[nH]c3ccccc23)NC(=O)[C@@H]2CSCC(=O)NCCn3c(=O)n(c(=O)n(c3=O)CCNC(=O)CSC[C@H](NC(=O)[C@H](C)NC(=O)CN(C)C(=O)CN(C)C(=O)CN(C)C(=O)CN(C)C(=O)CN(C)C(=O)CN(C)C(=O)CN(C)C(=O)CN(C)C(=O)CN(C)C(=O)CN(C)C(=O)CCN)C(=O)N[C@@H]([C@@H](C)O)C(=O)N[C@@H](CCC(=O)O)C(=O)N2)CCNC(=O)CSC[C@@H](C(=O)O)NC(=O)[C@@H]2CCCN2C(=O)[C@H](C(C)C)NC(=O)[C@H](Cc2c[nH]c3ccccc23)NC(=O)CNC(=O)[C@H](CC(=O)O)NC1=O` [Compound I-19] displayed a Ki of 50 to 100 nM.

`CC(C)[C@@H]1NC(=O)[C@H](Cc2c[nH]c3ccccc23)NC(=O)[C@@H]2CSCC(=O)NCCN(CCNC(=O)CSC[C@@H](C(N)=O)NC(=O)[C@@H]3CCCN3C(=O)[C@H](C(C)C)NC(=O)[C@H](Cc3c[nH]c4ccccc34)NC(=O)CNC(=O)[C@H](CC(=O)O)NC1=O)CCNC(=O)CSC[C@H](NC(=O)[C@H](C)NC(=O)CN(C)C(=O)CN(C)C(=O)CN(C)C(=O)CN(C)C(=O)CN(C)C(=O)CN(C)C(=O)CN(C)C(=O)CN(C)C(=O)CN(C)C(=O)CN(C)C(=O)CCN)C(=O)N[C@@H]([C@@H](C)O)C(=O)N[C@@H](CCC(=O)O)C(=O)N2` [Compound I-63] showed a Ki of at most 50 nM.

Regarding `CC(C)[C@@H]1NC(=O)[C@H](Cc2c[nH]c3ccccc23)NC(=O)[C@@H]2CSCCC(=O)N3CCN(CCN(CC3)C(=O)CCSC[C@H](NC(=O)[C@H](C)NC(=O)CN(C)C(=O)CN(C)C(=O)CN(C)C(=O)CN(C)C(=O)CN(C)C(=O)CN(C)C(=O)CN(C)C(=O)CN(C)C(=O)CN(C)C(=O)CN(C)C(=O)CCN)C(=O)N[C@@H]([C@@H](C)O)C(=O)N[C@@H](CCC(=O)O)C(=O)N2)C(=O)CCSC[C@@H](C(N)=O)NC(=O)[C@@H]2CCCN2C(=O)[C@H](C(C)C)NC(=O)[C@H](Cc2c[nH]c3ccccc23)NC(=O)CNC(=O)[C@H](CC(=O)O)NC1=O` [Compound I-22], the Ki fell in the range of 100 to 1000 nM.

Consider `CC(C)[C@@H]1NC(=O)[C@H](Cc2c[nH]c3ccccc23)NC(=O)[C@@H]2CSCCS(=O)(=O)N3CCN(CCN(CC3)S(=O)(=O)CCSC[C@H](NC(=O)[C@H](C)NC(=O)CN(C)C(=O)CN(C)C(=O)CN(C)C(=O)CN(C)C(=O)CN(C)C(=O)CN(C)C(=O)CN(C)C(=O)CN(C)C(=O)CN(C)C(=O)CN(C)C(=O)CCN)C(=O)N[C@@H]([C@@H](C)O)C(=O)N[C@@H](CCC(=O)O)C(=O)N2)S(=O)(=O)CCSC[C@@H](C(=O)O)NC(=O)[C@@H]2CCCN2C(=O)[C@H](C(C)C)NC(=O)[C@H](Cc2c[nH]c3ccccc23)NC(=O)CNC(=O)[C@H](CC(=O)O)NC1=O` [Compound I-62], for which the Ki lay within 100 to 1000 nM.

As for `CC(C)[C@@H]1NC(=O)[C@H](Cc2c[nH]c3ccccc23)NC(=O)[C@@H]2CSCC(=O)N3CCOCCN(CCOCCN(CCOCC3)C(=O)CSC[C@H](NC(=O)[C@H](C)NC(=O)CN(C)C(=O)CN(C)C(=O)CN(C)C(=O)CN(C)C(=O)CN(C)C(=O)CN(C)C(=O)CN(C)C(=O)CN(C)C(=O)CN(C)C(=O)CN(C)C(=O)CCN)C(=O)N[C@@H]([C@@H](C)O)C(=O)N[C@@H](CCC(=O)O)C(=O)N2)C(=O)CSC[C@@H](C(=O)O)NC(=O)[C@@H]2CCCN2C(=O)[C@H](C(C)C)NC(=O)[C@H](Cc2c[nH]c3ccccc23)NC(=O)CNC(=O)[C@H](CC(=O)O)NC1=O` [Compound I-26], the Ki was in the range of 100 to 1000 nM.

The compound `CC(C)[C@@H]1NC(=O)[C@H](Cc2c[nH]c3ccccc23)NC(=O)[C@@H]2CSCC(=O)N3CC45CN(C[C@@]4(CN(C5)C(=O)CSC[C@H](NC(=O)[C@H](C)NC(=O)CN(C)C(=O)CN(C)C(=O)CN(C)C(=O)CN(C)C(=O)CN(C)C(=O)CN(C)C(=O)CN(C)C(=O)CN(C)C(=O)CN(C)C(=O)CN(C)C(=O)CCN)C(=O)N[C@@H]([C@@H](C)O)C(=O)N[C@@H](CCC(=O)O)C(=O)N2)C3)C(=O)CSC[C@@H](C(N)=O)NC(=O)[C@@H]2CCCN2C(=O)[C@H](C(C)C)NC(=O)[C@H](Cc2c[nH]c3ccccc23)NC(=O)CNC(=O)[C@H](CC(=O)O)NC1=O` [Compound I-23] showed a Ki above 1000 nM.

With `CC(C)[C@@H]1NC(=O)[C@H](Cc2c[nH]c3ccccc23)NC(=O)[C@@H]2CSCC(=O)N3CCN(CCN(CC3)C(=O)CSC[C@H](NC(=O)[C@H](C)NC(=O)CN(C)C(=O)CN(C)C(=O)CN(C)C(=O)CN(C)C(=O)CN(C)C(=O)CN(C)C(=O)CN(C)C(=O)CN(C)C(=O)CN(C)C(=O)CN(C)C(=O)CCN)C(=O)N[C@@H]([C@@H](C)O)C(=O)N[C@@H](CCC(=O)O)C(=O)N2)C(=O)CSC[C@@H](C(N)=O)NC(=O)[C@@H]2CCCN2C(=O)[C@H](C(C)C)NC(=O)[C@H](Cc2c[nH]c3ccccc23)NC(=O)CNC(=O)[C@H](CC(=O)O)NC1=O` [Compound I-21], the Ki fell in the range of 100 to 1000 nM.

For the compound `CC(C)[C@@H]1NC(=O)[C@H](Cc2c[nH]c3ccccc23)NC(=O)[C@@H]2CSCCC(=O)N3CC45CN(CC4(CN(C5)C(=O)CCSC[C@H](NC(=O)[C@H](C)NC(=O)CN(C)C(=O)CN(C)C(=O)CN(C)C(=O)CN(C)C(=O)CN(C)C(=O)CN(C)C(=O)CN(C)C(=O)CN(C)C(=O)CN(C)C(=O)CN(C)C(=O)CCN)C(=O)N[C@@H]([C@@H](C)O)C(=O)N[C@@H](CCC(=O)O)C(=O)N2)C3)C(=O)CCSC[C@@H](C(=O)O)NC(=O)[C@@H]2CCCN2C(=O)[C@H](C(C)C)NC(=O)[C@H](Cc2c[nH]c3ccccc23)NC(=O)CNC(=O)[C@H](CC(=O)O)NC1=O` [Compound I-24], the Ki was above 1000 nM.

The target of the next assay is T1, CAIX.
Assay: not given
To be noted: bicyclic peptide formed with TBMB scaffold; CAIX binder; cited from earlier work.
In the case of βAla-Sar10-A-CTECWVDGWVPC [Compound 2], the Kd was 10 nM.

The target in the next assay is MT1-MMP hemopexin domain (Homo sapiens, UniProt P50281). Description: Direct binding fluorescence polarization (anisotropy) assay.
Details: not given
The protocol: Direct Binding Fluorescence Polarization or Anisotropy Assays are performed by titrating a constant concentration of fluorescent tracer (here, the fluoresceinated bicyclic peptide to be studied) with its binding partner (here, the MT1-MMP hemopexin domain). As the concentration of binding partner increases during the titration, the polarization signal changes in proportion to the fraction of bound and unbound material. This allows determination of […] (Kd) quantitatively. Assay data can be fit using standard ligand binding equations.
Typically, concentrations of the tracer are ideally well below the Kd of the tracer:titrant pair, and concentrations chosen are usually at ˜1 nM or less. The titrant (binding partner) concentration is varied from 0.1 nM up to typically 5 μM. The range is chosen such that the maximum change in fluorescent polarization can be observed. Buffers employed are phosphate buffered saline in the presence of 0.01% Tween. Experiments were run in black 384 well low-bind/low volume plates (Corning 3820), and the fluorescent polarization signal was measured using a BMG Pherastar FS plate reader. Fluorescent tracers referred to in the text are bicyclic peptides that have been fluoresceinated using 5,6-carboxyfluorescein. Fluoresceination may be performed on the N-terminal amino group of the peptide, which is separated from the bicycle core sequence by a sarcosine spacer (usually Sar5). This can be done during Fmoc solid phase synthesis or post-synthetically (after cyclization with the molecular scaffold reagent and purification) if the N-terminal amino group is unique to the peptide. Fluoresceination can also be performed on the C-terminus, usually on a Lysine introduced as the first C-terminal residue, which is then separated from the bicycle core sequence by a sarcosine spacer (usually Sar6). Thus, N-terminal tracers can have a molecular format described as Fluo-Gly-Sar5-A(BicycleCoreSequence), and (BicycleCoreSequence)-A-Sar6-K(Fluo) for a C-terminally fluoresceinated construct.
Fluorescent tracers used in the Examples are A-(17-69)-A-Sar6-K(Fluo), A-(17-69-07)-A-Sar6-K(Fluo), and A-(17-69-12)-A-Sar6-K(Fluo). Due to the acidic nature of the 17-69 fluorescent peptides, they were typically prepared as concentrated DMSO stocks, from which dilution were prepared in 100 mM Tris pH 8 buffer.
Results from the direct binding fluorescence polarization (anisotropy) assays is depicted in Table 3, below. A K, value designated “A” denotes a Ki of ≤50 nM; a Ki value designated “B” denotes a Ki of >50 nM and ≤100 nM; a Ki value designated “C” denotes a Ki of >100 nM and ≤1,000 nM; and a Ki value designated “D” denotes a Ki of >1,000 nM.
In general terms: Fluorescence polarisation rises when a labelled molecule tumbles more slowly, as on binding a larger partner.
For `C[C@H](N)C(=O)N[C@H]1CSCC(=O)NCCn2c(=O)n3c(=O)n(c2=O)CCNC(=O)CSC[C@H](NC(=O)[C@@H](C)NC(=O)[C@H](Cc2cccc4ccccc24)NC(=O)[C@H](CCC(=O)O)NC(=O)[C@H](CC(N)=O)NC(=O)[C@@H](C)NC1=O)C(=O)N[C@@H](CCC(=O)O)C(=O)N[C@@H](CC(=O)O)C(=O)N[C@@H](Cc1ccccc1)C(=O)N[C@@H](Cc1ccc(O)cc1)C(=O)N[C@@H](CC(=O)O)C(=O)N[C@@H](C(C)(C)C)C(=O)N[C@H](C(N)=O)CSCC(=O)NCC3` [Compound I-52] (H-AC[dA]NE[1Nal][dA]CEDFYD[Tle]C-NH2; linker 2-8-15 via X8), the Ki fell in the range of 100 to 1000 nM.

With `C[C@H](N)C(=O)N[C@H]1CSCCS(=O)(=O)c2cc3cc(c2)S(=O)(=O)CCSC[C@@H](NC(=O)[C@@H](C)NC(=O)[C@H](Cc2cccc4ccccc24)NC(=O)[C@H](CCC(=O)O)NC(=O)[C@H](CC(N)=O)NC(=O)[C@@H](C)NC1=O)C(=O)N[C@@H](CCC(=O)O)C(=O)N[C@@H](CC(=O)O)C(=O)N[C@@H](Cc1ccccc1)C(=O)N[C@@H](Cc1ccc(O)cc1)C(=O)N[C@@H](CC(=O)O)C(=O)N[C@@H](C(C)(C)C)C(=O)N[C@H](C(N)=O)CSCCS3(=O)=O` [Compound I-61] (H-AC[dA]NE[1Nal][dA][dC]EDFYD[Tle]C-NH2; linker 2-8-15 via X6), the Ki is at most 50 nM.

Regarding `C[C@H](N)C(=O)N[C@H]1CSCC(=O)N2CC34CN5CC3(C2)CN(C4)C(=O)CSC[C@H](NC(=O)[C@@H](C)NC(=O)[C@H](Cc2cccc3ccccc23)NC(=O)[C@H](CCC(=O)O)NC(=O)[C@H](CC(N)=O)NC(=O)[C@@H](C)NC1=O)C(=O)N[C@@H](CCC(=O)O)C(=O)N[C@@H](CC(=O)O)C(=O)N[C@@H](Cc1ccccc1)C(=O)N[C@@H](Cc1ccc(O)cc1)C(=O)N[C@@H](CC(=O)O)C(=O)N[C@@H](C(C)(C)C)C(=O)N[C@H](C(N)=O)CSCC5=O` [Compound I-57] (H-AC[dA]NE[1Nal][dA]CEDFYD[Tle]C-NH2; linker 2-8-15 via X3), the Ki was in the range of 100 to 1000 nM.
